Experimental data reported in patent publication US20230203003A1, “Notch Inhibitors and Uses Thereof” (StemSynergy Therapeutics, Inc., priority 2020, published 2023).
Where a name gives a salt, the structure may show the parent alone. Read-outs that look alike come from different tables or passages of the source.

Experiments:
Type in all cases: cell-based
Notch1 = Notch1 Reporter Assay
hNotch1ICD = biological target: T1, hNotch1ICD (Homo sapiens, UniProt P46531); test: Notch1 Reporter Assay (Dox-inducible Notch1-ICD, CSL-responsive luciferase in 293A cells); conditions: 293A cells, 24 h, luciferase normalized to cell viability; read-out: Notch1 Reporter Assay IC50
T1 construct: pLV[Tet]-Puro-TRE3G>Notch1-ICD; expressed in transfected cells; host or cells: 293A cells
Method: 293A cells expressing 1) pCMV-Tet-On 3G, 2) pLV[Tet]-Puro-TRE3G>Notch1-ICD, 3) pLV[Tet]-Puro-TRE3G>Notch2-ICD, 4) pLV[Tet]-Puro-TRE3G>Notch3-ICD, and 5) pCSL-RElement-Luc were used. When Doxycycline is added, the Tet-ON gene activates expression of hNotch1ICD, which together with endogenous NTC components binds to CSL responsive elements (pCSL-RElement-Luc) and expresses luciferase. 1 ×× 10^4 cells are plated in 100 µL (96-well format). 24 h later, compounds (10 mM stock in DMSO) are diluted in DMSO to 200X, then added (5 ul into 1 mL) to cell culture media containing 50 ng/mL Dox. This is then added 1:1 to cells. Final DMSO = 0.25%, Dox = 25 ng/mL. After 24 h, media is discarded, and cells are lysed in passive lysis buffer (Promega). Cells are rocked at room temperature for 15 min and then lysate is divided for luciferase assay (Luciferase Assay System, Promega) and cell viability (CellTiter Glo 2.0, Promega). Raw luciferase is normalized to cell viability, and then scaled to DMSO wells. Results are analyzed and IC50′s are determined in GraphPad by nonlinear regression curve fitting (4 parameter) of dose response curves.

[1] = tested on: OE33 Esophageal Adenocarcinoma cell line; test: OE33 Colony Formation Assay; conditions: Homo sapiens, OE33, 168 h, OE33 cells, 200 cells/well, 7 days, CellTiter-Glo
Method: OE33 Colony Formation Assay
The OE33 Esophageal Adenocarcinoma cell line was cultured and plated into 96-well tissue culture plates under sparse conditions (200 cells/well). Test compounds were serially diluted in DMSO and then into culture media (final DMSO concentration = 0.1%). Compound/media was then added to cells every 48 hours for a total of 7 days. Clonogenic growth was assessed using the CellTiter-Glo reagent, according to manufacturer (Promega) specifications. Percent inhibition was calculated as the percent of luminescence normalized to control (0.1% DMSO) wells. Nonlinear regression curve fitting was performed using GraphPad Prism software to determine EC50′s.

T1 sequence (P46531 1754-2555 limits assumed): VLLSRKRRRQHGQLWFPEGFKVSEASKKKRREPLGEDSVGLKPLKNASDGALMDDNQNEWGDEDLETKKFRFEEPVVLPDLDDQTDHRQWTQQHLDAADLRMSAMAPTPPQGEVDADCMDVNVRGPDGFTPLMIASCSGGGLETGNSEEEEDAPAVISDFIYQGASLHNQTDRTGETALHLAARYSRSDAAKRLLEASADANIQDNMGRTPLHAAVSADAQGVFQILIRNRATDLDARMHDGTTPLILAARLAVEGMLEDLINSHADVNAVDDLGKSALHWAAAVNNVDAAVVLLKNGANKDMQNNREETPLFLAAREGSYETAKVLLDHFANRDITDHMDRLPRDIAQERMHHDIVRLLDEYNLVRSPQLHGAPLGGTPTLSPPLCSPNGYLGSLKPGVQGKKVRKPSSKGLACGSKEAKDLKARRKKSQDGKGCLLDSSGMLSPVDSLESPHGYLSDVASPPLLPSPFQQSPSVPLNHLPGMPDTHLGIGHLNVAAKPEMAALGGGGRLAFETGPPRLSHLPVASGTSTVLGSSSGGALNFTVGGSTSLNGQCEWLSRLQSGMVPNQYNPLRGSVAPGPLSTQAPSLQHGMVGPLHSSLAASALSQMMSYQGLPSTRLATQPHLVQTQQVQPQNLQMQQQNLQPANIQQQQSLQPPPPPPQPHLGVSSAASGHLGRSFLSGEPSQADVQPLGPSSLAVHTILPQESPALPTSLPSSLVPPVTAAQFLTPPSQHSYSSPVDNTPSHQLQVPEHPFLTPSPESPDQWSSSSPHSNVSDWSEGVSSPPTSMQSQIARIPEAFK

Row | IC50 (Notch1; Formate Salt) [µM] | IC50 (Notch1) [µM] | EC50 [1] [µM] | SMILES | IC50 (hNotch1ICD) [µM]
1 | 10.2 | – | – | CC(C)Cn1c(=O)c(C(=O)Nc2cccc(N3CCN(C)CC3)c2)c(O)c2ccccc21 [SSTN-560 Formate Salt, 4-Hydroxy-1-Isobutyl-N-(3-(4-Methylpiperazin-1-Yl)Phenyl)-2-Oxo-1,2-Dihydroquinoline-3-Carboxamide Formate Salt] | –
2 | – | 14.2 | – | CC(C)Cn1c(=O)c(C(=O)Nc2cccc(N3CCN(C)CC3)c2)c(O)c2ccccc21 [SSTN-560, 4-hydroxy-1-isobutyl-N-(3-(4-methylpiperazin-1-yl)phenyl)-2-oxo-1,2-dihydroquinoline-3-carboxamide] | –
3 | – | 7.7 | – | CC(C)Cn1c(=O)c(C(=O)Nc2cccc(N3CCN(C)CC3)c2)c(O)c2ccccc21 [SSTN-560_HCI salt, 4-hydroxy-1-isobutyl-N-(3-(4-methylpiperazin-1-yl)phenyl)-2-oxo-1,2-dihydroquinoline-3-carboxamide] | –
4 | – | – | 6 | CC(C)Cn1c(=O)c(C(=O)Nc2cc(F)ccn2)c(O)c2ccccc21 [compound 522, N-(4-fluoropyridin-2-yl)-4-hydroxy-1-isobutyl-2-oxo-1,2-dihydroquinoline-3-carboxamide] | 17.2
5 | – | – | 7.4 | CC(C)Cn1c(=O)c(C(=O)Nc2ccon2)c(O)c2ccccc21 [compound 525, 4-hydroxy-1-isobutyl-N-(isoxazol-3-yl)-2-oxo-1,2-dihydroquinoline-3-carboxamide] | 13.8
6 | – | – | 2.5 | CC(C)Cn1c(=O)c(C(=O)Nc2cnn(C)c2)c(O)c2ccccc21 [compound 534, 4-hydroxy-1-isobutyl-N-(1-methyl-1H-pyrazol-4-yl)-2-oxo-1,2-dihydroquinoline-3-carboxamide] | 11.3
7 | – | – | 1.7 | CC(C)Cn1c(=O)c(C(=O)Nc2cccc(F)c2)c(O)c2ccccc21 [compound 538, N-(3-fluorophenyl)-4-hydroxy-1-isobutyl-2-oxo-1,2-dihydroquinoline-3-carboxamide] | 9.6
8 | – | – | 0.9 | CC(C)Cn1c(=O)c(C(=O)Nc2cccc(N3CCNCC3)c2)c(O)c2ccccc21 [compound 552, 4-hydroxy-1-isobutyl-2-oxo-N-(3-(piperazin-1-yl)phenyl)-1,2-dihydroquinoline-3-carboxamide trifluoro aceticacid] | 4.3
9 | – | – | 3.9 | CC(C)Cn1c(=O)c(C(=O)Nc2cccc(N(C)C3CC3)c2)c(O)c2ccccc21 [compound 561, N-(3-(cyclopropyl(methyl)amino)phenyl)-4-hydroxy-1-isobutyl-2-oxo-1,2-dihydroquinoline-3-carboxamide] | 19.1
10 | – | – | 7.7 | CC(C)Cn1c(=O)c(C(=O)Nc2cccc(N(C)CC3CC3)c2)c(O)c2ccccc21 [compound 562, N-(3-((cyclopropylmethyl)(methyl)amino)phenyl)-4-hydroxy-1-isobutyl-2-oxo-1,2-dihydroquinoline-3-carboxamide] | 15
